Measurements published in patent US8883745B2, “C—glycolipids with enhanced Th-1 profile” (New York University, priority 2006, dated 2014).

What was measured:
IFN-γ = assay: In vitro IFN-γ ELISPOT assay using PBMCs and immature DCs; type: cell-based, human; conditions: 100 ng/ml glycolipid, 22-26 hours co-culture with immature DCs
Protocol: CD14+ cells were isolated from leukopaks, using magnetic beads (Miltenyi biotec, Auburn, Calif.) coupled to an anti-CD14 monoclonal antibody. Immature dendritic cells (DCs) were then generated from the CD14+ cells after a three-day incubation in the presence of 300 U/ml GM-CSF (R&D systems, Minneapolis, Minn.) and 100 U/ml IL-4 (R&D systems, Minneapolis, Minn.). CD14-cells were used as Peripheral Blood Mononuclear Cells (PBMCs) for the following experiments.
96 well nitrocellulose plates (Milititer HA, Millipore) were coated with 10 μg/ml of anti-human interferon γ mAb (Mabtech, Ohio), contained in 75 μl of PBS. After overnight incubation at room temperature, the wells were washed repeatedly and blocked with culture medium for 1 hour at 37° C. Following irradiation with 3000 rads, 5×10^4 immature dendritic cells were co-cultured with 5×10^5 of syngeneic CD14− PBMCs in the presence of 100 ng/ml of various glycolipids (i.e., GCK109 [A-1 trans-conformer], GCK151 [A-1 cis-conformer], GCK127 [A-2], GCK152 [A-7], and control compounds CRONY=α-C-GalCer and KRN=α-GalCer) in the ELISPOT plate for 22-26 hours at 37° C. and 5% CO2. […] After 10 to 15 minutes, the number of spots corresponding to IFN-γ secreting cells was determined using a stereomicroscope. […]

IL-4 = assay: In vitro IL-4 ELISPOT assay using PBMCs and immature DCs; type: cell-based, human; conditions: 100 ng/ml glycolipid, 22-26 hours co-culture with immature DCs

SMILES | frequency of PBMCs secreting IFN-γ (ELISPOT), compared with KRN (IFN-γ) | frequency of PBMCs secreting IL-4 (ELISPOT), compared with KRN (IL-4)
CCCCCCCCCCCCCC[C@@H](O)[C@@H](O)[C@H](/C=C/[C@H]1OC(CO)[C@H](O)[C@H](O)C1O)NC(=O)CCCCCCCc1ccccc1 (stereo partly shown) [A-7] | high frequency | high frequency
CCCCCCCCCCCCCCCCCC/C=C\CCCCCCCCC(=O)N[C@@H](/C=C/[C@H]1OC(CO)[C@H](O)[C@H](O)C1O)[C@H](O)[C@H](O)CCCCCCCCCCCCCC (stereo partly shown) [GCK151] | high frequency | high frequency
